Results published in PMC9150124, “Design of a Potent, Selective, and Brain-Penetrant Inhibitor of Wnt-Deactivating Enzyme Notum by Optimization of a Crystallographic Fragment Hit” (Journal of Medicinal Chemistry, 2022).

Columns and labels:
Experiment in all cases: SelectScreen kinase profiling, SSBK ZLyte SP Technology
Format in all cases: biochemical
[1] = biological target: kinase named in conditions (Homo sapiens, UniProt P00533); details: EGFR (ErbB1), 10 μM
Protocol: (§1) Kinase selectivity screening was performed by Thermo Fisher Scientific (Paisley, U.K.) in their SelectScreen Biochemical Kinase Profiling Service. Assay information and data are presented in the Supporting Information.
(§2) Kinase selectivity screening was performed by ThermoFisher Scientific (Paisley, U.K.) in their SelectScreenTM
(§3) Biochemical Kinase Profiling service .

[2] = biological target: kinase named in conditions (Homo sapiens, UniProt P00519, G250E); details: ABL1 G250E, 10 μM
Protocol: as §1, §2, §3

[3] = biological target: kinase named in conditions (Homo sapiens, UniProt P04626); details: ERBB2 (HER2), 10 μM
Protocol: as §1, §2, §3

[4] = biological target: kinase named in conditions (Homo sapiens, UniProt P06213); details: INSR, 10 μM
Protocol: as §1, §2, §3

[5] = biological target: kinase named in conditions (Homo sapiens, UniProt P54646)
Protocol: as §1, §2, §3

[6] = biological target: kinase named in conditions (Homo sapiens, UniProt P29317); details: EPHA2, 10 μM
Protocol: as §1, §2, §3

[7] = biological target: kinase named in conditions (Homo sapiens, UniProt Q9P286); details: PAK7 (KIAA1264), 10 μM
Protocol: as §1, §2, §3

[8] = biological target: kinase named in conditions (Homo sapiens, UniProt Q13976); details: PRKG1, 10 μM
Protocol: as §1, §2, §3

[9] = biological target: kinase named in conditions (Homo sapiens, UniProt P10721, V559D); details: KIT V559D, 10 μM
Protocol: as §1, §2, §3

[10] = biological target: kinase named in conditions (Homo sapiens, UniProt Q86Z02); details: HIPK1 (Myak), 10 μM
Protocol: as §1, §2, §3

[11] = biological target: kinase named in conditions (Homo sapiens, UniProt P23443); details: RPS6KB1 (p70S6K), 10 μM
Protocol: as §1, §2, §3

[12] = biological target: kinase named in conditions (Homo sapiens, UniProt Q13164); details: MAPK7 (ERK5), 10 μM
Protocol: as §1, §2, §3

[13] = biological target: kinase named in conditions (Homo sapiens, UniProt P22607, V555M); details: FGFR3 V555M, 10 μM
Protocol: as §1, §2, §3

[14] = biological target: kinase named in conditions (Homo sapiens, UniProt P11362); details: FGFR1, 10 μM
Protocol: as §1, §2, §3

[15] = biological target: kinase named in conditions (Homo sapiens, UniProt P27361); details: MAPK3 (ERK1), 10 μM
Protocol: as §1, §2, §3

[16] = biological target: kinase named in conditions (Homo sapiens, UniProt P41743); details: PRKCI (PKC iota), 10 μM
Protocol: as §1, §2, §3

[17] = biological target: kinase named in conditions (Homo sapiens, UniProt P51813); details: BMX, 10 μM
Protocol: as §1, §2, §3

[18] = biological target: kinase named in conditions (Homo sapiens, UniProt Q8IW41); details: MAPKAPK5 (PRAK), 10 μM
Protocol: as §1, §2, §3

[19] = biological target: kinase named in conditions (Homo sapiens, UniProt Q96PF2); details: STK22B (TSSK2), 10 μM
Protocol: as §1, §2, §3

[20] = biological target: kinase named in conditions (Homo sapiens, UniProt P49760); details: CLK2, 10 μM
Protocol: as §1, §2, §3

[21] = biological target: kinase named in conditions (Homo sapiens, UniProt P15056, V600E); details: BRAF V599E, 10 μM
Protocol: as §1, §2, §3

[22] = biological target: kinase named in conditions (Homo sapiens, UniProt P00533, L858R/T790M); details: EGFR (ErbB1) T790M L858R, 10 μM
Protocol: as §1, §2, §3

[23] = biological target: kinase named in conditions (Homo sapiens, UniProt P00519, Y253F); details: ABL1 Y253F, 10 μM
Protocol: as §1, §2, §3

[24] = biological target: kinase named in conditions (Homo sapiens, UniProt P54756); details: EPHA5, 10 μM
Protocol: as §1, §2, §3

[25] = biological target: kinase named in conditions (Homo sapiens, UniProt P08069); details: IGF1R, 10 μM
Protocol: as §1, §2, §3

[26] = biological target: kinase named in conditions (Homo sapiens, UniProt P08581, Y1235D); details: MET (cMet) Y1235D, 10 μM
Protocol: as §1, §2, §3

[27] = biological target: kinase named in conditions (Homo sapiens, UniProt O96017); details: CHEK2 (CHK2), 10 μM
Protocol: as §1, §2, §3

[28] = biological target: kinase named in conditions (Homo sapiens, UniProt P49674); details: CSNK1E (CK1 epsilon), 10 μM
Protocol: as §1, §2, §3

[29] = biological target: kinase named in conditions (Homo sapiens, UniProt P42684); details: ABL2 (Arg), 10 μM
Protocol: as §1, §2, §3

[30] = biological target: kinase named in conditions (Homo sapiens, UniProt P28482); details: MAPK1 (ERK2), 10 μM
Protocol: as §1, §2, §3

[31] = biological target: kinase named in conditions (Homo sapiens, UniProt O76039); details: CDKL5, 10 μM
Protocol: as §1, §2, §3

[32] = biological target: kinase named in conditions (Homo sapiens, UniProt P19784); details: CSNK2A2 (CK2 alpha 2), 10 μM
Protocol: as §1, §2, §3

[33] = biological target: kinase named in conditions (Homo sapiens, UniProt Q9NR20); details: read-out: % Inhibition mean
Protocol: as §1, §2, §3

Sequence of kinase named in conditions (Homo sapiens, UniProt P54646) (P54646 whole entry): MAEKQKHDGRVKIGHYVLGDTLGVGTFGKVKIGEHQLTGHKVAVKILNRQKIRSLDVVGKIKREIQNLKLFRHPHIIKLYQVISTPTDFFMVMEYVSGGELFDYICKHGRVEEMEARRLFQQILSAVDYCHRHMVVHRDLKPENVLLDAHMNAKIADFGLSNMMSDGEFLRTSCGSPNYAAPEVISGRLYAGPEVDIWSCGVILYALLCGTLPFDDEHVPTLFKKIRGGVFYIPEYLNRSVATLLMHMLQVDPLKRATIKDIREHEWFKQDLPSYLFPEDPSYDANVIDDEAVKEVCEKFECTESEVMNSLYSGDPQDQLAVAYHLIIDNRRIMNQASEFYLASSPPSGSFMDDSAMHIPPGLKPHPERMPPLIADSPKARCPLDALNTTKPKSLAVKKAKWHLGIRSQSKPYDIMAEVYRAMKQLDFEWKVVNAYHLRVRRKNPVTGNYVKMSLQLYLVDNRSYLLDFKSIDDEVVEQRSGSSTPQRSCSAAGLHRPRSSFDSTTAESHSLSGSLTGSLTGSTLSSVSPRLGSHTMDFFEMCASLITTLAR
Sequence of kinase named in conditions (Homo sapiens, UniProt P49760) (P49760 whole entry): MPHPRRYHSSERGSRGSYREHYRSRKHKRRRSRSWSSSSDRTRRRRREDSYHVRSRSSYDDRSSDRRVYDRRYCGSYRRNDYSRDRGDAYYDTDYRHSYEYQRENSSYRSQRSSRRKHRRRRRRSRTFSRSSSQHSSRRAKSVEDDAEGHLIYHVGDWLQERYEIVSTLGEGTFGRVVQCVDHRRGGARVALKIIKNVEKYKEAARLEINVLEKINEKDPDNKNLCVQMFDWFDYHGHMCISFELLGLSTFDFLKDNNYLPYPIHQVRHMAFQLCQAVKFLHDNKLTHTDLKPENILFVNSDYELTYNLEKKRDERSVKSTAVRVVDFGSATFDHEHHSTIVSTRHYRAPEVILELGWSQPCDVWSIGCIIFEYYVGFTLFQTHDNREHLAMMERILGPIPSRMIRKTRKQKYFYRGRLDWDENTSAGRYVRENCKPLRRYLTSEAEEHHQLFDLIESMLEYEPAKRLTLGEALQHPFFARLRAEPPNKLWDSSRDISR
Sequence of kinase named in conditions (Homo sapiens, UniProt Q8IW41) (Q8IW41 whole entry): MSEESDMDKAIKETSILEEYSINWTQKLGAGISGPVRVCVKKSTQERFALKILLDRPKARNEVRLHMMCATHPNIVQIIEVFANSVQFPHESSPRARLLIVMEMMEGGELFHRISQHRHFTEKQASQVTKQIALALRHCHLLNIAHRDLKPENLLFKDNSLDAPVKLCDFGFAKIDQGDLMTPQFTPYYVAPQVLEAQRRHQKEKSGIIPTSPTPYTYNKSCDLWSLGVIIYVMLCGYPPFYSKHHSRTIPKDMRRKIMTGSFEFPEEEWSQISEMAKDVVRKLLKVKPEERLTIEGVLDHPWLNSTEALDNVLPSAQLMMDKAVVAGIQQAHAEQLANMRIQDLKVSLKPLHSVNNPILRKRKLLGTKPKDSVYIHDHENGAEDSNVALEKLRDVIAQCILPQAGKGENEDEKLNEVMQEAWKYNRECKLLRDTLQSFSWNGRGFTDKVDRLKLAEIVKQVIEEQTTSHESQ
Sequence of kinase named in conditions (Homo sapiens, UniProt O76039) (O76039 whole entry): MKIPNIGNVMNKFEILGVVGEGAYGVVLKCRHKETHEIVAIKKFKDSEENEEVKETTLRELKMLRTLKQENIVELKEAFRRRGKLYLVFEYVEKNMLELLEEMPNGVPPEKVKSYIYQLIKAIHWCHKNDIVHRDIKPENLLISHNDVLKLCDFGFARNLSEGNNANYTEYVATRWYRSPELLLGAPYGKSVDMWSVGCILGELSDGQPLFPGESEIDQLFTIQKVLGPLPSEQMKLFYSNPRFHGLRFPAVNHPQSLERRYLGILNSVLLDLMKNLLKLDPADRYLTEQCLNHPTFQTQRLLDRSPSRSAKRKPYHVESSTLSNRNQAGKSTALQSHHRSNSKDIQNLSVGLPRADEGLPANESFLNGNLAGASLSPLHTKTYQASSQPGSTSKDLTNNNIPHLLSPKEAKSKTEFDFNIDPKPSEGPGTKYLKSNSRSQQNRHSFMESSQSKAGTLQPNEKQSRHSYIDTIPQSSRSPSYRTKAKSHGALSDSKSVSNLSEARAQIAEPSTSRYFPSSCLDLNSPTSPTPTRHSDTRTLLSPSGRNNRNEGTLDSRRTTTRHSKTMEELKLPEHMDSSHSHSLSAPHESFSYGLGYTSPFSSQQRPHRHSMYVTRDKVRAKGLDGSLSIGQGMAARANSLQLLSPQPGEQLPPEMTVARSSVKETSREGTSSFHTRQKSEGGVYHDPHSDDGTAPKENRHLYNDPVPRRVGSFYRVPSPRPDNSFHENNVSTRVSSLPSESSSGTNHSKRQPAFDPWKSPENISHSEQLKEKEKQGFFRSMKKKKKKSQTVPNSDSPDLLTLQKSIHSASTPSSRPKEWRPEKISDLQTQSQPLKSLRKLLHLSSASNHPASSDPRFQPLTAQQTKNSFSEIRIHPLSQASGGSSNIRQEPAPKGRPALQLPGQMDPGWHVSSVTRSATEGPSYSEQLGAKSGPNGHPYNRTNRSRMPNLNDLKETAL
Sequence of kinase named in conditions (Homo sapiens, UniProt Q9P286) (Q9P286 whole entry): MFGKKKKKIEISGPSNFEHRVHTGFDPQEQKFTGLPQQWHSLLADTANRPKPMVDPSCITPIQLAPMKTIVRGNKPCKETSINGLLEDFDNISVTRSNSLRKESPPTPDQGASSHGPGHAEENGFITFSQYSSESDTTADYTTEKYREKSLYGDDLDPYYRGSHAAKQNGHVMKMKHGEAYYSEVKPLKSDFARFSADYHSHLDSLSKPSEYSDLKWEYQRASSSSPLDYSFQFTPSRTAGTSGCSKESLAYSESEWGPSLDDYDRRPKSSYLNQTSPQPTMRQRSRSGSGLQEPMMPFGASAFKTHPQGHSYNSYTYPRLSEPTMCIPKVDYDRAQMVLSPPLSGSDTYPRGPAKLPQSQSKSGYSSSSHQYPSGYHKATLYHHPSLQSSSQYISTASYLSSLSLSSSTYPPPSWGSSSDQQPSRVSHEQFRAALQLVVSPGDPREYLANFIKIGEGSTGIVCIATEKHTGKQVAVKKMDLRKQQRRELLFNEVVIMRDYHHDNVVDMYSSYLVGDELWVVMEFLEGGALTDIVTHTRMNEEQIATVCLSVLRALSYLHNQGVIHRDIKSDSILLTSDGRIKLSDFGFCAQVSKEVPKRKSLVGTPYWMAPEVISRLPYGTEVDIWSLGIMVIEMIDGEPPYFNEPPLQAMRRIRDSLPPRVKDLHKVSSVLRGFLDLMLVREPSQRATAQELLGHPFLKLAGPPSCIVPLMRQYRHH
Sequence of kinase named in conditions (Homo sapiens, UniProt Q96PF2) (Q96PF2 whole entry): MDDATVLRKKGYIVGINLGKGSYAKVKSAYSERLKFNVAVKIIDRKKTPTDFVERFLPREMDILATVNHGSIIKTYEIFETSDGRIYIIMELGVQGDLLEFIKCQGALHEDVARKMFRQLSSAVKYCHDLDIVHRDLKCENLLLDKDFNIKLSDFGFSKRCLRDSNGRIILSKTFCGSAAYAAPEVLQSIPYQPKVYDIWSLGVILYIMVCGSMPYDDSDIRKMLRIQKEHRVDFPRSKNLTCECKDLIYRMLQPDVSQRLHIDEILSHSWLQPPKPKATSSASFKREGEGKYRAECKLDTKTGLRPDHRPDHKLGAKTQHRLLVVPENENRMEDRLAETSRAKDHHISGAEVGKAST
Sequence of kinase named in conditions (Homo sapiens, UniProt P08581, Y1235D) (P08581 25-1390 Y1235D): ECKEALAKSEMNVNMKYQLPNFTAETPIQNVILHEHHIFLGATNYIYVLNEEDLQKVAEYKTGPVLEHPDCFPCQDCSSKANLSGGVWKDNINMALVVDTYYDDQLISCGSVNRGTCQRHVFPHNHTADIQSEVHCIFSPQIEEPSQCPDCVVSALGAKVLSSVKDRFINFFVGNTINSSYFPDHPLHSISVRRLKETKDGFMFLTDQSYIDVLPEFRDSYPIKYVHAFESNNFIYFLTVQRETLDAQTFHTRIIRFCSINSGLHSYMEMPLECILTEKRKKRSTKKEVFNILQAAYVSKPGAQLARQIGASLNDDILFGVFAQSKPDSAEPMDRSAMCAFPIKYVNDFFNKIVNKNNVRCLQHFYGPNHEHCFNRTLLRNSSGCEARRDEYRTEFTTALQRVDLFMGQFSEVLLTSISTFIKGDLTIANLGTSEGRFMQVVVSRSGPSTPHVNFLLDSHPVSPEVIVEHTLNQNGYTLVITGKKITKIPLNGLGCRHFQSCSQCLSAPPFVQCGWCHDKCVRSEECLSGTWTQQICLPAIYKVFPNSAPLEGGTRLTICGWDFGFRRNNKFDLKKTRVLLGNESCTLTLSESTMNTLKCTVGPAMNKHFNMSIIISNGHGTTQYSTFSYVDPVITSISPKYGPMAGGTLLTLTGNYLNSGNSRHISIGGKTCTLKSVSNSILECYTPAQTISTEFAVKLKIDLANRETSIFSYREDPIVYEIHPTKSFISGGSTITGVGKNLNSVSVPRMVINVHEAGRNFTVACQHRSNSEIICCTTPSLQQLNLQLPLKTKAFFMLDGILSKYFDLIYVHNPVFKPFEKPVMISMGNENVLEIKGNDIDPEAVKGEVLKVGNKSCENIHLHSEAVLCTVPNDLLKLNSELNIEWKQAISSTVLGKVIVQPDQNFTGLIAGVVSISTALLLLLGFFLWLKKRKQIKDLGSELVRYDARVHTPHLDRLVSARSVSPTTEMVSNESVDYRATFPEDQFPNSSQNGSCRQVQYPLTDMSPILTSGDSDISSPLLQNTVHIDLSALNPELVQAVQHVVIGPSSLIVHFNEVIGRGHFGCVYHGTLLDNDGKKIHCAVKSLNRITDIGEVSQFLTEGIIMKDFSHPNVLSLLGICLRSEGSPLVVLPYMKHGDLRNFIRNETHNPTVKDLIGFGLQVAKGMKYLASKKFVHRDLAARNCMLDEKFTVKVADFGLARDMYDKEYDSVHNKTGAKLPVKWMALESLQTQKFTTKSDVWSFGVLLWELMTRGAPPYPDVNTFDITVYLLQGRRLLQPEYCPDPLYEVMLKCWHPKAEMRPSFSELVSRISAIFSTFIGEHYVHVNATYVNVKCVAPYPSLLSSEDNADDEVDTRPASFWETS

`FC(F)(F)c1c(Cl)ccc(-n2ccnn2)c1Cl` [8l, 1-(2,4-Dichloro-3-(trifluoromethyl)phenyl)-1H-1,2,3-triazole] was tested, and the inhibition at 10 µM [1] was 1%, the inhibition at 10 µM [2] was 8% and the inhibition at 10 µM [3] was 0%. The inhibition at 10 µM [4] was 6%, the inhibition at 10 µM ([5]; AMPK (A2/B1/G2), 10 μM) was -2% and the inhibition at 10 µM ([5]; AMPK (A2/B1/G3), 10 μM) was 2%. The inhibition at 10 µM ([5]; AMPK (A2/B2/G3), 10 μM) was 3%, the inhibition at 10 µM ([5]; AMPK A2/B1/G1, 10 μM) was 14% and the inhibition at 10 µM [6] was 9%. It also gave an inhibition at 10 µM [7] of 8%, an inhibition at 10 µM [8] of 15% and an inhibition at 10 µM [9] of -3%. The inhibition at 10 µM [10] was 2%, the inhibition at 10 µM [11] was 9% and the inhibition at 10 µM [12] was -3%. The inhibition at 10 µM [13] was -14%, the inhibition at 10 µM [14] was -3% and the inhibition at 10 µM [15] was 4%. The inhibition at 10 µM [16] was 4%, the inhibition at 10 µM [17] was 7% and the inhibition at 10 µM [18] was 6%. The inhibition at 10 µM [19] was -2%, the inhibition at 10 µM [20] was 18% and the inhibition at 10 µM [21] was 5%. For the same molecule, the inhibition at 10 µM [22] was 12%, the inhibition at 10 µM [23] was 13% and the inhibition at 10 µM [24] was 0%. It also gave an inhibition at 10 µM [25] of -4%, an inhibition at 10 µM [26] of 0% and an inhibition at 10 µM [27] of 8%. For the same molecule, the inhibition at 10 µM [28] was 1%, the inhibition at 10 µM [29] was 10% and the inhibition at 10 µM [30] was -2%. For the same molecule, the inhibition at 10 µM [31] was -5%, the inhibition at 10 µM [32] was 17% and the inhibition at 10 µM [33] was 1%.
